# Experimental data taken from patent publication US20230102836A1, “Amoebicidal Compositions for Contact Lens Solutions” (University of the West of Scotland, priority 2019, published 2023).
# “And” between values parts separate entries of the source, which are not always exact repeats. Equal entries are not always repeated. Where two headings read alike, the source gives them in different places.
# Assays:
# [1] = system: A. castellanii trophozoites; assay: Drug wash-out / alamarBlue-reversion assay, trophozoites; assay type: cell-based, Acanthamoeba castellanii ATCC 50370
# [2] = QACs; cited from earlier work
# [3] = system: A. castellanii trophozoites; assay: Cytotoxicity assay on trophozoites (resazurin / alamarBlue); assay type: cell-based, Acanthamoeba castellanii ATCC 50370; conditions: for IC50: Acanthamoeba castellanii, Table 2, read-out: IC50 A. castellanii trophozoites
# Procedure: (§1) Acanthamoeba castellanii ATCC 50370 trophozoites and cysts were cultured in Peptone Glucose (PG) medium and encystment medium (Chagla A H, Griffiths A J (1974) Microbiology: 85(1): 139-145) respectively at 25° C. Cysts were prepared by incubating trophozoites for 8 days in encystment medium and integrity validated with calcofluor (0.25 μg/ml) assay (Gatti S et al (2010) J. Med. Microbiol.; 59: 1324-1330) or sodium dodecyl sulfate (SDS, 0.5% w/v) disintegration assay (Dudley R et al (2005) Acta Trop.; 9: 100-8) and microscopic observation.
# The compounds used in this study all contained alkyl-carbon chains: three APCs [dodecyl-PC (APC12), tetradecyl-PC. (APC14) and hexadecyl-PC (APC16)] (Anatrace) and four QACs [docdecyl-TMAB (QAC12), tetradecyl-TMAB (QAC14), hexadecyl-TMAB (QAC16) and octadecyl-TMAB (QAC18)](Sigma). All were prepared to a stock concentration of 1 mg/ml and diluted as required by the experimental protocol in the cytotoxicity assays. […]
# […] Resazurin (7-Hydroxy-31-phenoxazin-3-one 10-oxide; 5 mg/ml; McBride J et al (2005) J. Clin. Microbiol.; 43: 629-634) and trypan blue (0.4 μg/ml; Mafra C S P et al (2013) Investig. Ophthalmol. Vis. Si.; 54: 6363-6372) were then added to trophozoites and cysts respectively after being exposed to the compounds and the cell viability estimated microscopically and from changes in absorbance (at 595 nm and 570 nm) respectively.
# (§2) Efficacy was expressed as a percentage of untreated controls for each drug concentration used and the data used to calculate the IC50. Cell density was estimated using the modified Neubaur hemocytometer and expressed as cells/ml.
# [4] = system: Acanthamoeba trophozoites; assay: Checkerboard dilution QAC-APC interaction (Bliss model); assay type: cell-based, Acanthamoeba castellanii; conditions: APC12, APC14, APC16; 96 h at 25° C.
# Procedure: Acanthamoeba trophozoites (10^5 cells/ml. n=5/treatment) treated with 100 μg/ml doubly diluted to 0.06 μg/ml of QAC12 (FIG. 7A), […], QAC16 (FIG. 7C) and QAC18 (FIG. 7D) with APC 12 (i), APCI 4 (ii) and APC16 (iii) for 96 h at 25° C. Cell viability estimated by the alamarBlue assay the dose-response curves used to produce a surface analysis (right panel) and the interaction profile determined using the Bliss model. The degree of interaction characterised by the QCScore heuristic score are produced as heat map (left panel). The colour of each cell in the heatmap and the surface analysis represents the assay response at that dose combination; red to orange, antagonistic: yellow to green, additive and blue, synergistic.
# The change in potency between QAC and APC prompted us to used the checkerboard dilution method to identify synergistic interactions (FIG. 7A-D). Three interaction profiles, antagonistic (orange to red), additive (yellow to green) and synergistic (blue) were observed, with optimal synergistic interactions deemed to be significant occurring between 20-38%; (FIG. 7).
# A. castellanii cysts [5] = assay: Drug wash-out / alamarBlue-reversion assay, cysts; assay type: cell-based, Acanthamoeba castellanii ATCC 50370; conditions: for Back transformation to trophozoites after drug wash-out: Cysts; on Back transformation to trophozoites after drug wash-out: key: +: indicates cells reverting back to trophozoites after washout; and capable of oxidizing reduced alamarBlue from blue to pink after 8 days; −: indicates cell that did not revert to trophozoites after wash-out and unable to oxidise reduced alamarBlue solution
# Procedure: For the drug kinetic assay, viability was assessed by the linked alamarBlue-reversion assay. Drug-treated cysts were washed with PBS and fresh PG medium was added to allow reversion to trophozoites for 5 days, after which, alamar blue was added and viability estimated as described above.
# The cysticidal activity of QAC16 to QAC18 strongly correlated with (a) the alkyl-carbon chain lengths (Table 2) and the duration of drug contact (FIG. 8H). Like trophozoites, death was via leakage judged by 40% and 50% increase in DNA and proteins in the external milieu after 1 h (FIGS. 9A and 9B). To investigate if the cyst were viable, a complementary viability assay that involved, drug washout, incubation in PG medium to allow reversion of viable cyst to trophozoite for 7 days, and estimation of viability using the oxidation of resazurin after 6 h.
# A. castellanii cysts [6] = assay: Cytotoxicity assay on cysts (trypan blue); assay type: cell-based, Acanthamoeba castellanii ATCC 50370; conditions: Acanthamoeba castellanii
# Procedure: as §1
# The compounds used in this study all contained alkyl-carbon chains: three APCs [dodecyl-PC (APC12), tetradecyl-PC. (APC14) and hexadecyl-PC (APC16)] (Anatrace) and four QACs [docdecyl-TMAB (QAC12), tetradecyl-TMAB (QAC14), hexadecyl-TMAB (QAC16) and octadecyl-TMAB (QAC18)](Sigma). All were prepared to a stock concentration of 1 mg/ml and diluted as required by the experimental protocol in the cytotoxicity assays. A. castellanii trophozoites and cysts (at 10^5 cells/ml) with or without APCs or QACs (concentrations ranging from […] doubly diluted to 0.04 μg/ml to a final volume of 100 μl) in a 96-well plate were incubated at 25° C. for a duration determined by the experimental protocol.
# For the combined assay, similar concentrations of QAC18 and APC16 were prepared and 18.75 μg/ml and 37.5 μg/ml of QAC12 added (to a final volume of 100 μl) were added to 10^5 cells/mi in a 96-well plate and later incubated at 25° C. for a duration determined by the experimental protocol. Resazurin (7-Hydroxy-31-phenoxazin-3-one 10-oxide; 5 mg/ml; McBride J et al (2005) J. Clin. Microbiol.; 43: 629-634) and trypan blue (0.4 μg/ml; Mafra C S P et al (2013) Investig. Ophthalmol. Vis. Si.; 54: 6363-6372) were then added to trophozoites and cysts respectively after being exposed to the compounds and the cell viability estimated microscopically and from changes in absorbance (at 595 nm and 570 nm) respectively.
# as §2
# [7] = system: A. castellanii trophozoites; assay: Trophozoite-cyst conversion in encystment medium; assay type: cell-based, Acanthamoeba castellanii ATCC 50370; conditions: encystment medium supplemented with 37.5 μg/ml of QAC12
# Procedure: Acanthamoeba trophozoites (10^5 cells/ml) incubated for up to 192 h in encystment medium inoculated with (dark grey) and without (light grey) QAC12 at 25° C. The number of trophozoites remaining estimated microscopically and expressed as a percent of total trophozoites at the start of the assay. Data is mean […]±SD; n=4 independent experiments performed in triplicates.
# as §1
# gDNA from A. castellanii = assay: QAC-DNA interaction assay; assay type: binding, Acanthamoeba castellanii; conditions: DNA:QAC ratios 1:0, 1:1, 1:10, 1:20; 15 min
# Procedure: FIGS. 3A and 3B show the QAC-DNA interaction. The absorbance of genomic DNA (0.6 ng/ml) extracted from A. castellani trophozoites measured at 260 nm with the Nanodrop after incubating for 15 minutes with 0 ng/ml, 0.6 ng/ml, 6 ng/ml or 12 ng/ml of QAC12 (FIG. 3A) or QAC16 (FIG. 3B) to give ratios of 1:0, 1:1, 1:10 and 1:20. DNA absorbance increased and decreased with increased […] and [QAC12] respectively. Data is mean absorbance at 260 nm±SD; n=4 independent experiments performed in triplicates.
# Genomic deoxynucleic acids (gDNA) from 10^8 A. castellanii trophozoites (treated with and without QAC) were extracted from cells harvested by centrifugation (850×g, 10 min), lysed with UNSET buffer (8M urea, […] NaCl, 2% SDS, […] ethylenediaminetetraacetic acid (EDTA), […] Tris-HCl, pH 7.5) and the DNA extracted with phenol-chloroform (1:1 v/v). The biphasic suspension with DNA enriched on the […] was centrifuged (12,000×g for 15 min, 4° C.) for clear separation and transferred to a new microcentrifuge tube. The DNA was precipitated with cold ethanol (100%, v/v) and 0.3M sodium acetate, washed twice with 70% (v/v) ethanol (12,000×g for 10 min, 4° C.), air dried and resuspended in distilled water. […]
# [8] = read-out: IC50 A. castellanii cysts
smiles,measurement,setting,value
"CCCCCCCCCCCCCCCC[N+](C)(C)C.[Br-] [QAC16, hexadecyltrimethyl ammonium bromide]",Back transformation to trophozoites after drug wash-out,"[1]; 9.375 μg/ml, 1 h",+
same,Back transformation to trophozoites after drug wash-out,"[1]; 9.375 μg/ml, 24 h",+
same,Back transformation to trophozoites after drug wash-out,"[1]; 9.375 μg/ml, 48 h",+
same,Back transformation to trophozoites after drug wash-out,"[1]; 9.375 μg/ml, 72 h",+
same,Back transformation to trophozoites after drug wash-out,"[1]; 9.375 μg/ml, 96 h",+
same,Back transformation to trophozoites after drug wash-out,"[1]; 18.75 μg/ml, 1 h",+
same,Back transformation to trophozoites after drug wash-out,"[1]; 18.75 μg/ml, 24 h",−
same,Back transformation to trophozoites after drug wash-out,"[1]; 18.75 μg/ml, 48 h",−
same,Back transformation to trophozoites after drug wash-out,"[1]; 18.75 μg/ml, 72 h",−
same,Back transformation to trophozoites after drug wash-out,"[1]; 18.75 μg/ml, 96 h",−
same,Back transformation to trophozoites after drug wash-out,"[1]; 37.50 μg/ml, 1 h",−
same,Back transformation to trophozoites after drug wash-out,"[1]; 37.50 μg/ml, 24 h",−
same,Back transformation to trophozoites after drug wash-out,"[1]; 37.50 μg/ml, 48 h",−
same,Back transformation to trophozoites after drug wash-out,"[1]; 37.50 μg/ml, 72 h",−
same,Back transformation to trophozoites after drug wash-out,"[1]; 37.50 μg/ml, 96 h",−
same,Amoebotoxicity after wash-out and replacement with PG medium,[1]; after 24 h at 18.75 μg/ml,amoebotoxic
same,Amoebotoxicity after wash-out and replacement with PG medium,[1]; from 1 h onwards at 37.5 μg/ml,amoebotoxic
same,CMC,[2],0.26 ± 0.2 µM
same,IC50,[3],4.9 µg/mL and 19 µM
same,Interaction profile of QAC combined with APCs,[4],less frequent and ‘noisy’
same,Resurgence of cysts after drug washout,A. castellanii cysts [5]; 37.5 μg/ml after 48 h,No resurgence
same,Back transformation to trophozoites after drug wash-out,"A. castellanii cysts [5]; 9.375 μg/ml, 24 h",+
same,Back transformation to trophozoites after drug wash-out,"A. castellanii cysts [5]; 9.375 μg/ml, 48 h",+
same,Back transformation to trophozoites after drug wash-out,"A. castellanii cysts [5]; 9.375 μg/ml, 72 h",+
same,Back transformation to trophozoites after drug wash-out,"A. castellanii cysts [5]; 18.75 μg/ml, 24 h",+
same,Back transformation to trophozoites after drug wash-out,"A. castellanii cysts [5]; 18.75 μg/ml, 48 h",+
same,Back transformation to trophozoites after drug wash-out,"A. castellanii cysts [5]; 18.75 μg/ml, 72 h",+
same,Back transformation to trophozoites after drug wash-out,"A. castellanii cysts [5]; 37.50 μg/ml, 24 h",+
same,Back transformation to trophozoites after drug wash-out,"A. castellanii cysts [5]; 37.50 μg/ml, 48 h",−
same,Back transformation to trophozoites after drug wash-out,"A. castellanii cysts [5]; 37.50 μg/ml, 72 h",−
same,IC50,"A. castellanii cysts [6]; 96 h, read-out: Estimated IC50 against matured cysts",19 ± 0.03 µg/mL
same,IC50,A. castellanii cysts [6]; [8],19.2 µg/mL and 72 µM
"CCCCCCCCCCCC[N+](C)(C)C.[Br-] [QAC12, Dodecyltrimethyl ammonium bromide]",CMC,[2],^+3.5 ± 0.3 μM
same,Delay of encystation,[7],96 h
same,Increase in absorbance at 570 nm (cell density) relative to control cells,"[3]; 96 h at 25° C., peak at 37.7 μg/ml, alamarBlue",4 fold
same,IC50,[3],> 37.5 µg/mL and > 122 µM
same,Effect on trophozoite biomass,[3]; FIG. 4,dose-dependent increased biomass
same,Activity against A. castellanii trophozoites,[3]; at up to 37.5 μg/ml,inactive
same,Interaction profile of QAC combined with APCs,[4],Significant synergistic ‘well defined’ interactions were more predominant
same,IC50,A. castellanii cysts [6]; [8],> 37.5 µg/mL and > 122 µM
same,Change of gDNA absorbance at 260 nm with increasing QAC,gDNA from A. castellanii,dose-dependent decreased absorbance
